From the CheMixHub ionic liquid set

Assay: xn = mol fraction of the nth substance listed
Conditions: 100 kPa

C[NH+](C)CCC=C1c2ccccc2CCc2ccccc21.[Cl-] + CCCC[n+]1ccn(C)c1.[Cl-] + O
electrical conductivity [S/m]
Conditions	298 K	303 K	308 K	313 K	318 K
x2 = 0.00018, x1 = 0.0007057	0.498	0.501	0.511	0.509	0.527
x2 = 0.00018, x1 = 0.0007396	0.512	0.519	0.535	0.522	0.55
x2 = 0.00018, x1 = 0.000773	0.524	0.533	0.538	0.536	0.564
x2 = 0.00018, x1 = 0.0008057	0.543	0.55	0.551	0.561	0.581
x2 = 0.00018, x1 = 0.0008382	0.56	0.564	0.566	0.57	0.595
x2 = 0.00018, x1 = 0.0008701	0.569	0.578	0.58	0.587	0.613
x2 = 0.00018, x1 = 0.0009016	0.579	0.589	0.597	0.602	0.629
x2 = 0.00018, x1 = 0.0009322	0.591	–	0.611	0.62	–
x2 = 0.0001801, x1 = 8.875e-05	0.189	0.186	0.193	0.19	0.188
x2 = 0.0001801, x1 = 0.0001104	0.201	0.198	0.203	0.202	0.202
x2 = 0.0001801, x1 = 0.0001321	0.215	0.209	0.216	0.212	0.21
x2 = 0.0001801, x1 = 0.0001534	0.227	0.223	0.228	0.224	0.224
x2 = 0.0001801, x1 = 0.0001747	0.24	0.235	0.239	0.238	0.235
x2 = 0.0001801, x1 = 0.0001956	0.251	0.248	0.247	0.249	0.249
x2 = 0.0001801, x1 = 0.0002165	0.272	0.27	0.274	0.259	0.26
x2 = 0.0001801, x1 = 0.0002578	0.293	0.288	0.293	0.277	0.285
x2 = 0.0001801, x1 = 0.0002984	0.313	0.306	0.315	0.301	0.31
x2 = 0.0001801, x1 = 0.0003383	0.328	0.328	0.335	0.321	0.332
x2 = 0.0001801, x1 = 0.0003776	0.348	0.345	0.353	0.34	0.351
x2 = 0.0001801, x1 = 0.0004164	0.365	0.368	0.37	0.357	0.374
x2 = 0.0001801, x1 = 0.0004544	0.385	0.383	0.388	0.381	0.392
x2 = 0.0001801, x1 = 0.0004919	0.406	0.401	0.407	0.397	0.413
x2 = 0.0001801, x1 = 0.0005289	0.42	0.416	0.427	0.42	0.431
x2 = 0.0001801, x1 = 0.0005653	0.437	0.435	0.44	0.433	0.455
x2 = 0.0001801, x1 = 0.0006012	0.451	0.452	0.46	0.457	0.471
x2 = 0.0001801, x1 = 0.0006365	0.469	0.469	0.476	0.472	0.493
x2 = 0.0001801, x1 = 0.0006715	0.485	0.485	0.496	0.491	0.51
x2 = 0.0001802, x1 = 2.245e-05	0.15	–	0.147	0.156	0.152
x2 = 0.0001802, x1 = 4.474e-05	0.165	0.159	0.162	0.167	0.163
x2 = 0.0001802, x1 = 6.683e-05	0.177	0.174	0.182	0.179	0.176

CC[n+]1ccccc1.N#C[N-]C#N + CCCO
Conditions	viscosity [mPa·s]
288.15 K, x2 = 0.1095	20.5
288.15 K, x2 = 0.1947	17.6
288.15 K, x2 = 0.8012	4.59
293.15 K, x2 = 0	22.1
293.15 K, x2 = 0.3011	13.3
293.15 K, x2 = 0.8012	4.05
298.15 K, x2 = 0.5008	7.45
298.15 K, x2 = 0.9	2.77
303.15 K, x2 = 0.4029	8.04
303.15 K, x2 = 0.702	4.19
308.15 K, x2 = 0.1947	9.87
308.15 K, x2 = 0.5008	5.9
308.15 K, x2 = 0.8012	2.92
308.15 K, x2 = 0.9	2.24
313.15 K, x2 = 0.1947	8.76
313.15 K, x2 = 0.5008	5.31
318.15 K, x2 = 0	11
318.15 K, x2 = 0.5008	4.8
318.15 K, x2 = 0.702	3.12
318.15 K, x2 = 0.9	1.84

CCOP(=O)([O-])OCC.CC[N+]1(C)CCCC1 + CCO
viscosity [mPa·s]
Conditions	293.15 K	298.15 K	303.15 K	308.15 K	313.15 K	318.15 K	323.15 K	328.15 K	333.15 K	338.15 K
x1 = 0.1003	3.85	3.4	2.99	2.66	2.35	2.07	1.83	1.67	1.5	1.44
x1 = 0.2001	8.78	7.84	6.91	6.2	5.58	5.06	4.67	4.27	3.94	3.62
x1 = 0.3004	18.4	15.67	13.37	11.53	9.97	8.78	7.86	7.13	6.55	6.04
x1 = 0.4001	39.8	29.8	24.8	20.6	17.7	15.24	13.14	11.6	10.25	9.19
x1 = 0.4997	66.9	52.7	42.3	34.5	28.5	23.8	20.3	17.4	14.99	13.17
x1 = 0.6002	116.3	88.7	68.7	54.9	43.9	35.2	29.3	24.6	20.7	17.9
x1 = 0.7001	180	133.7	102.4	78.8	62.3	49.5	39.7	32.8	27	22.6
x1 = 0.8011	265	193	143.7	109.7	83	66.1	51.9	42.1	34.3	28.3
x1 = 0.8985	334	237	173	130.1	98.4	75.6	59.5	47.3	37.8	30.9
x1 = 1	441	307	220	164	121.4	92.7	73	56.2	44.4	36.3

CC[n+]1ccccc1.N#C[N-]C#N + CCO
Conditions	viscosity [mPa·s]
288.15 K, x2 = 0	25.9
288.15 K, x2 = 0.1008	21.3
293.15 K, x2 = 0.1008	17.9
298.15 K, x2 = 0	18.9
298.15 K, x2 = 0.1974	12.4
298.15 K, x2 = 0.3008	10.3
298.15 K, x2 = 0.7999	2.54
303.15 K, x2 = 0.9011	1.69
308.15 K, x2 = 0.5058	5.17
313.15 K, x2 = 0.3994	5.99
313.15 K, x2 = 0.5058	4.69
313.15 K, x2 = 0.5994	3.74
313.15 K, x2 = 0.6996	2.92
318.15 K, x2 = 0.1008	8.97
318.15 K, x2 = 0.3994	5.44

CC[n+]1ccn(CCOC)c1.O=S(=O)([N-]S(=O)(=O)C(F)(F)F)C(F)(F)F + CCO
viscosity [mPa·s]
Conditions	x1 = 0.1	x1 = 0.1947	x1 = 0.2995	x1 = 0.4	x1 = 0.5002	x1 = 0.6001	x1 = 0.6999	x1 = 0.8	x1 = 0.9	x1 = 1
288.15 K	2.988	5.32	8.21	12.02	17.17	22.86	29.81	37.73	47.39	54.62
293.15 K	2.648	4.62	7.03	10.16	14.5	19.09	24.64	30.74	38.01	43.63
298.15 K	2.361	4.046	6.09	8.7	12.31	16.25	20.6	25.4	31.15	35.49
303.15 K	2.117	3.591	5.32	7.53	10.53	13.87	17.61	21.35	25.87	29.33
308.15 K	1.907	3.195	4.688	6.58	9.1	11.89	15.14	18.22	21.81	24.58
313.15 K	1.725	2.861	4.162	5.799	7.91	10.27	13.06	15.8	18.68	20.86
318.15 K	1.568	2.576	3.743	5.15	6.95	8.97	11.36	13.73	16.27	18.03

C[N+](C)(C)CCC[n+]1ccccc1.N#C[N-]C#N.N#C[N-]C#N + CCO
viscosity [mPa·s]
Conditions	x1 = 0.0999	x1 = 0.2001	x1 = 0.3002	x1 = 0.3999	x1 = 0.5002	x1 = 0.6001	x1 = 0.7003	x1 = 0.7998	x1 = 0.8995	x1 = 1
293.15 K	6.55	15.6	38	75.8	137	243	391	614	1038	2191
303.15 K	5.09	11.8	25.6	49.2	88.3	138	205	291	435	830
313.15 K	4.23	9.28	20.7	34.4	58.2	84.3	119	161	229	386
323.15 K	3.55	7.47	15.7	25.2	38.9	56.2	75.8	99	134	210
333.15 K	3.1	6.12	11.9	18	28	39.6	51.4	65.1	85.3	127
